Target: MASP-2 CCP2-SP (Homo sapiens (Human), UniProt O00187)
Experiment: MASP-2 co-crystallization, X-ray crystallography and structure analysis (H-bonds, van der Waals contacts);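 on Ligand-pharmacophore element distance, pharmacophore element C2: distance from averaged pharmacophore element to bound ligand; missing value means element absent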;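 on Ligand-pharmacophore element distance, pharmacophore element C3: distance from averaged pharmacophore element to bound ligand; missing value means element absent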;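 on Ligand-pharmacophore element distance, pharmacophore element C4: distance from averaged pharmacophore element to bound ligand; missing value means element absent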;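 on Ligand-pharmacophore element distance, pharmacophore element C5: distance from averaged pharmacophore element to bound ligand; missing value means element absent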
Parameters: van der Waals contact distance, MASP-2 HIS 483 atom CD2 / van der Waals contact distance, MASP-2 HIS 483 atom NE2 / van der Waals contact distance, SER 654 C to compound atom / van der Waals contact distance, SER 654 O to compound atom / van der Waals contact distance, TRP 655 C to compound atom / van der Waals contact distance, MASP-2 GLY 528 atom CA / van der Waals contact distance TRP 655 atom CZ3 / van der Waals contact distance TRP 655 atom N / van der Waals contact distance TRP 655 atom CE3 / van der Waals contact distance GLY 656 atom C / van der Waals contact distance GLY 656 atom CA / van der Waals contact distance GLY 656 atom O / van der Waals contact distance, MASP-2 TYR 607 atom CD1 / van der Waals contact distance, MASP-2 PRO 606 atom O / d(C3,CA1) / d(CA1,N1)2 / d(H4,O1) / d(H4,O2) / d(O1,O2) / d(CA1,O2) / d(CA6,O1) / d(CA6,O2) / d(CA1,C5) / d(O2,H3) / d(N2,C2) / d(CA5,N2) / d(N2,C4) / d(N2,C6) / d(N2,CA3) / d(N2,O3) / d(O4,H2): unit not given beside the values
Settings: for Ligand-pharmacophore element distance, pharmacophore element C2 / Ligand-pharmacophore element distance, pharmacophore element C3 / Ligand-pharmacophore element distance, pharmacophore element C4 / Ligand-pharmacophore element distance, pharmacophore element C5 / Ligand-pharmacophore element distance, pharmacophore element C6 / Ligand-pharmacophore element distance, pharmacophore element C7 / Ligand-pharmacophore element distance, pharmacophore element CA1 / Ligand-pharmacophore element distance, pharmacophore element CA2 / Ligand-pharmacophore element distance, pharmacophore element CA3 / Ligand-pharmacophore element distance, pharmacophore element CA4 / Ligand-pharmacophore element distance, pharmacophore element CA5 / Ligand-pharmacophore element distance, pharmacophore element CA6: Table A4-1
Summary of the method: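 Soaked crystals of recombinant CCP2-SP (E. coli) yield the structures, phased by molecular replacement on 1Q3X pieces. Hydrophobic or nonbonded contacts can also cover atom pairs that are potential hydrogen bonds.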

[1] = Table A5-1 pharmacophore: distance between elements, S2/S1 region
[2] = Table A5-2 pharmacophore distance, S3/S4 region
[3] = Table A7-1, between pharmacophore elements of the bound compound
[4] = Table A7-2, between pharmacophore elements of the bound compound
[5] = Table A8-6, nearest protein atom in cell to the left

Sequence of MASP-2 CCP2-SP (O00187 445-686): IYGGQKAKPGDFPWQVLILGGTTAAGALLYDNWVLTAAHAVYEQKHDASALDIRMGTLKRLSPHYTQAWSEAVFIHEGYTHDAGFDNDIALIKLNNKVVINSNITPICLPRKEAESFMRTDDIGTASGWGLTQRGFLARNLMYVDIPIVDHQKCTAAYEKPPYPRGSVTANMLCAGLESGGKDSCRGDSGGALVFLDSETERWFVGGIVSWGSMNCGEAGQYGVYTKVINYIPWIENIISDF
Sequence of MASP-2 CCP2-SP (O00187 364-432 partner): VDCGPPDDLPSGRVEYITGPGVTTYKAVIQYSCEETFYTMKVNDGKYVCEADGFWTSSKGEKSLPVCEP

## C[C@H](NC(=O)[C@H]1Cc2c([nH]c3ccccc23)CN1)C(=O)NCc1ccc(C(=N)N)cc1.Cl.Cl [1097_1]
  Ligand-pharmacophore element distance, pharmacophore element C2: 0.69
  Ligand-pharmacophore element distance, pharmacophore element C3: 0
  Ligand-pharmacophore element distance, pharmacophore element C4: 0
  Ligand-pharmacophore element distance, pharmacophore element C5: 0
  Ligand-pharmacophore element distance, pharmacophore element C6: 0
  Ligand-pharmacophore element distance, pharmacophore element C7: 0
  Ligand-pharmacophore element distance, pharmacophore element CA1: 0.29
  Ligand-pharmacophore element distance, pharmacophore element CA2: 0
  Ligand-pharmacophore element distance, pharmacophore element CA3: 0
  Ligand-pharmacophore element distance, pharmacophore element CA4: 0
  Ligand-pharmacophore element distance, pharmacophore element CA5: 0.98
  Ligand-pharmacophore element distance, pharmacophore element CA6: 0
[1]
  d(CA1,N1): 3.53
  d(CA1,O1): 4.28
  d(CA1,O2): 4.28
  d(H4,O1): 3.88
  d(H4,O2): 3.35
  d(O1,O2): 3.32
[2]
  d(CA5,N2): 4.50
  d(N2,C2): 1.42
  d(O2,H3): 4.58
  d(O2,N2): 2.81
Table A6-1 pharmacophore angle
  a(CA1, O1, O2): 112.80
  a(O1, O2, H4): 125.81
Table A6-1 pharmacophore angle, all compounds with protonatable center N1 except Methyl-amino-pyridine
  A(N1, CA1, O1) a): 162.99
Table A6-2 pharmacophore angle
  a(O1, O2, H3): 152.91
  a(O1, O2, N2): 134.93
  a(O2, N2, C2): 125.76
[3]
  Pharmacophore torsion angle a(H4, O1, O2, H3): 86.65
  Pharmacophore torsion angle a(H4, O1, O2, N2): 121.05
  Pharmacophore torsion angle a(N1, CA1, O2, H4): −97.71
  Pharmacophore torsion angle a(O1, H4, O2, CA1): −66.34
  Pharmacophore torsion angle a(O1, O2, N2, C2): 136.92
[4]
  Pharmacophore torsion angle a(O1, O2, N2, CA5): 148.15
Table A8-6, 6th residue column, nearest protein atom in cell to the left
  Pharmacophore protein distance to MET_658 (first MET_658 column): 2.40
Table A8-6, 9th residue column, nearest protein atom in cell to the left
  Pharmacophore protein distance to MET_658 (second MET_658 column): 3.49
[5]
  Pharmacophore protein distance to GLY_528: 3.46
  Pharmacophore protein distance to PHE_529: 2.89
  Pharmacophore protein distance to PRO_608: 3.89
  Pharmacophore protein distance to SER_611: 3.04
Table A8-6, pharmacophore elements C6, CA3, O3, H1, nearest protein atom in cell to the left
  Pharmacophore protein distance to TRP_655: 3.24

## CC(=O)Nc1ccc(CCN[C@H](CCc2ccccc2)C(=O)N[C@@H](C)C(=O)NCc2ccc(C(=N)N)cc2)cc1 [compound 1345, (R)-2-((4-acetamidophenethyl)amino)-N—((S)-1-((4-carbamimidoylbenzyl)amino)-1-oxopropan-2-yl)-4-phenylbutanamide]
Table A1 (H-Bonds), ARG 630 NH1
  H-bond distance to MASP-2 ARG 630 atom NH1 (second bond): 2.37
Table A1 (H-Bonds), GLN 665 OE1
  H-bond distance to MASP-2 GLN 665 atom OE1: 2.63
Table A1 (H-Bonds), GLY 656 N
  H-bond distance to MASP-2 GLY 656 atom N: 3.05
Table A1 (H-Bonds), GLY 656 O
  H-bond distance to MASP-2 GLY 656 atom O: 3.13
Table A1 (H-Bonds), SER 628 O
  H-bond distance to MASP-2 SER 628 atom O: 2.64
Table A1 (H-Bonds), SER 654 O
  H-bond distance to MASP-2 SER 654 atom O: 3.02
Table A1 (H-Bonds), SER 657 O
  H-bond distance to MASP-2 SER 657 atom O: 3.01
Table A2-1
  van der Waals contact distance, MASP-2 HIS 483 atom CD2: 3.69
  van der Waals contact distance, MASP-2 HIS 483 atom NE2: 3.37
Table A2-3
  van der Waals contact distance, MASP-2 PHE 529 atom CZ: 3.88
Table A2-9, ARG 630, AA atoms CG, CZ
  van der Waals contact distance, MASP-2 amino acid atom to compound atom: 3.52
Table A2-11
  van der Waals contact distance, SER 654 C to compound atom: 3.84
Table A2-12
  van der Waals contact distance, SER 654 O to compound atom: 3.75
Table A2-13, MASP-2 GLY 656 C
  van der Waals contact distance GLY 656 atom C: 3.74

## Cc1nc(N)ccc1CNC(=O)[C@H](C)NC(=O)[C@H]1C[C@H](Cc2cccc(Cl)c2)CN1.Cl.Cl [1328_1]
  Ligand-pharmacophore element distance, pharmacophore element C2: 0
  Ligand-pharmacophore element distance, pharmacophore element C3: 0.4
  Ligand-pharmacophore element distance, pharmacophore element C4: 0.76
  Ligand-pharmacophore element distance, pharmacophore element C5: 0
  Ligand-pharmacophore element distance, pharmacophore element C6: 0
  Ligand-pharmacophore element distance, pharmacophore element C7: 0
  Ligand-pharmacophore element distance, pharmacophore element CA1: 0.49
  Ligand-pharmacophore element distance, pharmacophore element CA2: 0.5
  Ligand-pharmacophore element distance, pharmacophore element CA3: 0
  Ligand-pharmacophore element distance, pharmacophore element CA4: 0
  Ligand-pharmacophore element distance, pharmacophore element CA5: 0
  Ligand-pharmacophore element distance, pharmacophore element CA6: 0
[1]
  d(C3,CA1): 2.85
  d(CA1,N1)2: 1.37
  d(CA1,O1): 4.24
  d(CA1,O2): 3.54
  d(H4,O1): 4.21
  d(H4,O2): 3.54
  d(O1,O2): 3.13
[2]
  d(N2,C4): 8.09
  d(N2,C4)4: 8.09
  d(N2,CA2): 5.88
  d(O2,H3): 4.20
  d(O2,N2): 2.79
Table A6-1 pharmacophore angle
  a(C3, CA1, O1): 150.62
  a(CA1, O1, O2): 101.20
  a(O1, O2, H4): 133.34
Table A6-1 pharmacophore angle, Methyl-amino-pyridine compounds
  a(N1, CA1, O1) b): 175.41
Table A6-2 pharmacophore angle
  a(O1, O2, H3): 150.01
  a(O1, O2, N2): 145.32
  a(O2, N2, C4): 161.66
  a(O2, N2, C4) 2: 114.03
  a(O2, N2, CA2): 155.25
[3]
  Pharmacophore torsion angle a(C3, CA1, O1, H4): 30.10
  Pharmacophore torsion angle a(H4, O1, O2, H3): 55.62
  Pharmacophore torsion angle a(H4, O1, O2, N2): 136.65
  Pharmacophore torsion angle a(N1, CA1, O1, H4): 20.31
  Pharmacophore torsion angle a(O1, H4, O2, CA1): −88.07
[4]
  Pharmacophore torsion angle a(O1, O2, N2, CA2): 126.19
